Results published in publication PMC5218480 (PLoS ONE, 2017).

Tested on: MV-4-11 cells
Experiment: Gene expression microarray analysis (Affymetrix PrimeView) and GSEA
Type: cell-based, human
Parameters: RFU PODN (11730768_x_at) / Fold change /veh PODN (11730768_x_at) / RFU LINC00158 (11744669_a_at) / Fold change /veh LINC00158 (11744669_a_at) / RFU DUSP10 (11751237_a_at) / Fold change /veh DUSP10 (11751237_a_at) / RFU ID3 (11757404_x_at) / Fold change /veh ID3 (11757404_x_at) / RFU PLEKHG5 (11737974_s_at) / Fold change /veh PLEKHG5 (11737974_s_at) / RFU LRRC4B (11730491_at) / Fold change /veh LRRC4B (11730491_at) / RFU GIMAP4 (11747438_a_at) / Fold change /veh GIMAP4 (11747438_a_at) / RFU KRT8 (11758183_x_at) / Fold change /veh KRT8 (11758183_x_at) / RFU CNN1 (11734310_a_at) / Fold change /veh CNN1 (11734310_a_at) / RFU VPS37D (11726825_at) / Fold change /veh VPS37D (11726825_at) / RFU C10orf10 (11716522_x_at) / Fold change /veh C10orf10 (11716522_x_at) / RFU KIR2DL2 /// KIR2DL4 /// KIR2DL5A /// KIR2DL5B /// KIR2DS1 /// KIR2DS2 /// KIR2DS3 /// KIR2DS4 /// KIR3DL3 /// KIR3DL3 /// KIR3DS1 (11738374_at) / Fold change /veh KIR2DL2 /// KIR2DL4 /// KIR2DL5A /// KIR2DL5B /// KIR2DS1 /// KIR2DS2 /// KIR2DS3 /// KIR2DS4 /// KIR3DL3 /// KIR3DL3 /// KIR3DS1 (11738374_at) / RFU C1QL1 (11718748_at) / Fold change /veh C1QL1 (11718748_at) / RFU TMPRSS4 (11747572_a_at) / Fold change /veh TMPRSS4 (11747572_a_at) / RFU HAMP (11756126_x_at) / Fold change /veh HAMP (11756126_x_at) / RFU RNFT2 (11725882_a_at) / Fold change /veh RNFT2 (11725882_a_at) / RFU NR4A2 (11747474_a_at) / Fold change /veh NR4A2 (11747474_a_at) / RFU ABCC12 (11746883_a_at) / Fold change /veh ABCC12 (11746883_a_at) / RFU TMEM136 (11760407_x_at) / Fold change /veh TMEM136 (11760407_x_at) / RFU CLDN22 /// WWC2 (11732394_at) / Fold change /veh CLDN22 /// WWC2 (11732394_at) / RFU HLA-DPB1 (11760878_x_at) / Fold change /veh HLA-DPB1 (11760878_x_at) / RFU SPINT1 (11716480_a_at) / Fold change /veh SPINT1 (11716480_a_at) / RFU GAP43 (11754022_s_at) / Fold change /veh GAP43 (11754022_s_at) / RFU A4GNT (11735810_at) / Fold change /veh A4GNT (11735810_at) / RFU PRB3 (11715151_x_at) / Fold change /veh PRB3 (11715151_x_at) / RFU TUBB4B (11761932_at) / Fold change /veh TUBB4B (11761932_at) / RFU CAPN14 (11732068_a_at) / Fold change /veh CAPN14 (11732068_a_at) / RFU TMCC2 (11721928_a_at) / Fold change /veh TMCC2 (11721928_a_at) / RFU IRGQ (11745062_a_at) / Fold change /veh IRGQ (11745062_a_at) / RFU FAM174B (11720279_a_at) / Fold change /veh FAM174B (11720279_a_at) / RFU TMPRSS4 (11748680_a_at) / Fold change /veh TMPRSS4 (11748680_a_at) / RFU FAM212B (11763350_a_at) / Fold change /veh FAM212B (11763350_a_at) / RFU PLEKHG5 (11743358_a_at) / Fold change /veh PLEKHG5 (11743358_a_at) / RFU ZSCAN30 (11745921_a_at) / Fold change /veh ZSCAN30 (11745921_a_at) / RFU CMKLR1 (11741424_a_at) / Fold change /veh CMKLR1 (11741424_a_at) / RFU LOC101060620 /// MAPK8IP1 (11723275_at) / Fold change /veh LOC101060620 /// MAPK8IP1 (11723275_at) / RFU SPTSSB (11747773_x_at) / Fold change /veh SPTSSB (11747773_x_at) / RFU PRSS12 (11739890_at) / Fold change /veh PRSS12 (11739890_at) / RFU BIN1 (11741810_x_at) / Fold change /veh BIN1 (11741810_x_at) / RFU WNT11 (11732464_a_at) / Fold change /veh WNT11 (11732464_a_at) / RFU C10orf10 (11716521_a_at) / Fold change /veh C10orf10 (11716521_a_at) / RFU C5orf56 (11738089_at) / Fold change /veh C5orf56 (11738089_at) / RFU CYB561 (11721691_x_at) / Fold change /veh CYB561 (11721691_x_at) / RFU ANKRD19P (11752326_a_at) / Fold change /veh ANKRD19P (11752326_a_at) / RFU OR2T12 /// OR2T33 /// OR2T8 (11738714_s_at) / Fold change /veh OR2T12 /// OR2T33 /// OR2T8 (11738714_s_at) / RFU VCAN (11748164_a_at) / Fold change /veh VCAN (11748164_a_at) / RFU JSRP1 (11732532_at) / Fold change /veh JSRP1 (11732532_at) / RFU KRTAP10-11 (11738290_x_at) / Fold change /veh KRTAP10-11 (11738290_x_at) / RFU MYO3A (11730013_a_at) / Fold change /veh MYO3A (11730013_a_at) / RFU EBF3 (11725865_a_at) / Fold change /veh EBF3 (11725865_a_at) / RFU CAMK2N1 (11719241_x_at) / Fold change /veh CAMK2N1 (11719241_x_at) / RFU C5orf56 (11738088_a_at) / Fold change /veh C5orf56 (11738088_a_at) / RFU OLFML3 (11715873_a_at) / Fold change /veh OLFML3 (11715873_a_at) / RFU LOC100653217 /// NTM (11731650_a_at) / Fold change /veh LOC100653217 /// NTM (11731650_a_at) / RFU MAPK11 (11762145_a_at) / Fold change /veh MAPK11 (11762145_a_at) / RFU FIZ1 (11724087_x_at) / Fold change /veh FIZ1 (11724087_x_at) / RFU OASL (11726364_x_at) / Fold change /veh OASL (11726364_x_at) / RFU SOX15 (11748057_x_at) / Fold change /veh SOX15 (11748057_x_at) / RFU CD79A (11719716_a_at) / Fold change /veh CD79A (11719716_a_at) / RFU HIST1H1D (11736915_at) / Fold change /veh HIST1H1D (11736915_at) / RFU CASKIN2 (11723855_a_at) / Fold change /veh CASKIN2 (11723855_a_at) / RFU LOC730098 (11760151_x_at) / Fold change /veh LOC730098 (11760151_x_at) / RFU OR4N2 (11742367_at) / Fold change /veh OR4N2 (11742367_at) / RFU PRRT2 (11749266_a_at) / Fold change /veh PRRT2 (11749266_a_at) / RFU SNX32 (11753110_a_at) / Fold change /veh SNX32 (11753110_a_at) / RFU CDHR5 (11726645_a_at) / Fold change /veh CDHR5 (11726645_a_at) / RFU RCAN1 (11760418_a_at) / Fold change /veh RCAN1 (11760418_a_at) / RFU FAM167A (11723789_a_at) / Fold change /veh FAM167A (11723789_a_at) / RFU FAM26E (11764081_at) / Fold change /veh FAM26E (11764081_at) / RFU ISYNA1 (11749810_s_at) / Fold change /veh ISYNA1 (11749810_s_at) / RFU ACY1 (11761880_at) / Fold change /veh ACY1 (11761880_at) / RFU 11764098_at / Fold change /veh 11764098_at / RFU SAMD14 (11745864_x_at) / Fold change /veh SAMD14 (11745864_x_at) / RFU NPB (11741838_a_at) / Fold change /veh NPB (11741838_a_at) / RFU TMPRSS6 (11731388_a_at) / Fold change /veh TMPRSS6 (11731388_a_at) / RFU KRTAP10-2 (11738614_at) / Fold change /veh KRTAP10-2 (11738614_at) / RFU ARHGAP8 /// PRR5-ARHGAP8 (11727945_x_at) / Fold change /veh ARHGAP8 /// PRR5-ARHGAP8 (11727945_x_at) / RFU KRTAP5-7 /// NADSYN1 (11734609_at) / Fold change /veh KRTAP5-7 /// NADSYN1 (11734609_at) / RFU RASL12 (11751679_a_at) / Fold change /veh RASL12 (11751679_a_at) / RFU CDKN2B (11736163_a_at) / Fold change /veh CDKN2B (11736163_a_at) / RFU PRF1 (11729649_at) / Fold change /veh PRF1 (11729649_at) / RFU, ZNF638 /// ZNF638-IT1 / Fold change vs veh, ZNF638 /// ZNF638-IT1 / RFU, PANK3 / Fold change vs veh, PANK3 / RFU, SH3YL1 / Fold change vs veh, SH3YL1 / RFU, ZEB2 / Fold change vs veh, ZEB2 / RFU, NRIP1 / Fold change vs veh, NRIP1 / RFU, PTTG1IP / Fold change vs veh, PTTG1IP / RFU, CAPN2 / Fold change vs veh, CAPN2 / RFU, MED14 / Fold change vs veh, MED14 / RFU, SNORA58 / Fold change vs veh, SNORA58 / RFU, C1orf63 / Fold change vs veh, C1orf63 / RFU, LRRFIP1 / Fold change vs veh, LRRFIP1 / RFU, NDUFAF7 / Fold change vs veh, NDUFAF7 / RFU, SLC12A2 / Fold change vs veh, SLC12A2 / RFU, IBTK / Fold change vs veh, IBTK / RFU, ESF1 / Fold change vs veh, ESF1 / Fold change vs veh, TMEM50B / RFU, TAOK1 / Fold change vs veh, TAOK1 / RFU, ACBD3 / Fold change vs veh, ACBD3 / RFU, TMA16 / Fold change vs veh, TMA16 / RFU, RWDD3 / Fold change vs veh, RWDD3 / RFU, BCAT1 / Fold change vs veh, BCAT1 / RFU, EDEM3 / Fold change vs veh, EDEM3 / RFU, TMEM33 / Fold change vs veh, TMEM33 / RFU, WDR75 / Fold change vs veh, WDR75 / RFU, AHCTF1 / Fold change vs veh, AHCTF1 / RFU, TFRC / Fold change vs veh, TFRC / RFU, ZDHHC17 / Fold change vs veh, ZDHHC17 / RFU, NOM1 / Fold change vs veh, NOM1 / RFU, ARL8B / Fold change vs veh, ARL8B / RFU, ZBTB11 / Fold change vs veh, ZBTB11 / RFU, TAMM41 / Fold change vs veh, TAMM41 / RFU, KIAA1704 /// LOC100996395 / Fold change vs veh, KIAA1704 /// LOC100996395 / RFU, ING1 / Fold change vs veh, ING1 / RFU, TRMT61B / Fold change vs veh, TRMT61B / RFU, FUBP3 / Fold change vs veh, FUBP3 / RFU, TP53 / Fold change vs veh, TP53 / RFU, TNKS2 / Fold change vs veh, TNKS2 / RFU, ZFP14 / Fold change vs veh, ZFP14 / RFU, ACTR2 / Fold change vs veh, ACTR2 / RFU, PPP3R1 / Fold change vs veh, PPP3R1 / RFU, PIK3R1 / Fold change vs veh, PIK3R1 / RFU, HNRNPA1 / Fold change vs veh, HNRNPA1 / RFU, RNF170 / Fold change vs veh, RNF170 / RFU, ZNF28 / Fold change vs veh, ZNF28 / RFU, RNGTT / Fold change vs veh, RNGTT / RFU, OGT / Fold change vs veh, OGT / RFU, BRD1 / Fold change vs veh, BRD1 / RFU, MARS / Fold change vs veh, MARS / RFU, ZNF655 / Fold change vs veh, ZNF655 / RFU, FAHD1 / Fold change vs veh, FAHD1 / RFU, BDP1 / Fold change vs veh, BDP1 / RFU, LRRCC1 / Fold change vs veh, LRRCC1 / RFU, ARID1A / Fold change vs veh, ARID1A / RFU, ZNF146 / Fold change vs veh, ZNF146 / RFU, ZNF330 / Fold change vs veh, ZNF330 / RFU, GPN3 / Fold change vs veh, GPN3 / RFU, C9orf123 / Fold change vs veh, C9orf123 / RFU, N4BP2L2 / Fold change vs veh, N4BP2L2 / RFU, ARFIP1 / Fold change vs veh, ARFIP1 / RFU, FAM179B / Fold change vs veh, FAM179B / RFU, BCL10 / Fold change vs veh, BCL10 / RFU, UHRF1BP1L / Fold change vs veh, UHRF1BP1L / RFU, BET1 / Fold change vs veh, BET1 / RFU, CNOT2 / Fold change vs veh, CNOT2 / RFU, ZNF268 / Fold change vs veh, ZNF268 / Fold change vs veh, ZNF507 / RFU, DGCR2 / Fold change vs veh, DGCR2 / RFU, WDSUB1 / Fold change vs veh, WDSUB1 / Fold change vs veh, HSP90B1 /// MIR3652 / RFU, ADSS / Fold change vs veh, ADSS / RFU, GK / Fold change vs veh, GK / RFU, ZNF148 / Fold change vs veh, ZNF148 / RFU, TAF9 / Fold change vs veh, TAF9 / RFU, SLC1A5 / Fold change vs veh, SLC1A5 / RFU, SLMO2 / Fold change vs veh, SLMO2 / RFU, ABCC4 / Fold change vs veh, ABCC4 / RFU, LOC101060439 /// RAP1B / Fold change vs veh, LOC101060439 /// RAP1B / RFU, RFX7 / Fold change vs veh, RFX7 / RFU, GTPBP10 / Fold change vs veh, GTPBP10 / RFU, CNEP1R1 / Fold change vs veh, CNEP1R1 / RFU, BIVM-ERCC5 /// ERCC5 / Fold change vs veh, BIVM-ERCC5 /// ERCC5 / RFU, ILF3 / Fold change vs veh, ILF3 / RFU 11762660_at / Fold change /veh 11762660_at / RFU VCAN (11757783_s_at) / Fold change /veh VCAN (11757783_s_at) / RFU DDX43 (11728927_at) / Fold change /veh DDX43 (11728927_at) / RFU KRT8 (11758188_x_at) / Fold change /veh KRT8 (11758188_x_at) / RFU NKD1 (11759106_at) / Fold change /veh NKD1 (11759106_at) / RFU SRD5A1 (11742802_a_at) / Fold change /veh SRD5A1 (11742802_a_at) / RFU TPSAB1 /// TPSB2 (11721975_s_at) / Fold change /veh TPSAB1 /// TPSB2 (11721975_s_at) / RFU GSTM3 (11746129_a_at) / Fold change /veh GSTM3 (11746129_a_at) / RFU IL23R (11737362_x_at) / Fold change /veh IL23R (11737362_x_at) / RFU TMEM51 (11727254_a_at) / Fold change /veh TMEM51 (11727254_a_at) / RFU PIWIL2 (11732686_x_at) / Fold change /veh PIWIL2 (11732686_x_at) / RFU ORM1 (11744905_x_at) / Fold change /veh ORM1 (11744905_x_at) / RFU CCDC152 (11743942_at) / Fold change /veh CCDC152 (11743942_at) / RFU ECM1 (11717891_a_at) / Fold change /veh ECM1 (11717891_a_at) / RFU IL23R (11748794_a_at) / Fold change /veh IL23R (11748794_a_at) / RFU TNFAIP8L3 (11732012_x_at) / Fold change /veh TNFAIP8L3 (11732012_x_at) / RFU MBOAT4 (11741988_at) / Fold change /veh MBOAT4 (11741988_at) / RFU 11764193_at / Fold change /veh 11764193_at / RFU TMEM53 (11763286_at) / Fold change /veh TMEM53 (11763286_at) / RFU MAGEB2 (11727129_at) / Fold change /veh MAGEB2 (11727129_at) / RFU TMEM200A (11744735_a_at) / Fold change /veh TMEM200A (11744735_a_at) / RFU CCDC152 (11751479_a_at) / Fold change /veh CCDC152 (11751479_a_at) / RFU FAM211A (11726209_a_at) / Fold change /veh FAM211A (11726209_a_at) / RFU RGS16 (11746705_a_at) / Fold change /veh RGS16 (11746705_a_at) / RFU VCAN (11755009_s_at) / Fold change /veh VCAN (11755009_s_at) / RFU RHOB (11743442_s_at) / Fold change /veh RHOB (11743442_s_at) / RFU RGS16 (11720943_a_at) / Fold change /veh RGS16 (11720943_a_at) / RFU RGS16 (11720944_at) / Fold change /veh RGS16 (11720944_at) / RFU, VPS4B / Fold change vs veh, VPS4B / RFU, CREB1 / Fold change vs veh, CREB1 / RFU, DNAJC13 / Fold change vs veh, DNAJC13 / RFU, GNAQ / Fold change vs veh, GNAQ / RFU, CDK5R1 / Fold change vs veh, CDK5R1 / RFU, ZRANB3 / Fold change vs veh, ZRANB3 / RFU, CUL4A / Fold change vs veh, CUL4A / RFU, CCNY / Fold change vs veh, CCNY / RFU, UFL1 / Fold change vs veh, UFL1 / RFU, COG3 / Fold change vs veh, COG3 / RFU, DIAPH2 / Fold change vs veh, DIAPH2 / RFU, SKA2 / Fold change vs veh, SKA2 / RFU, AFF3 / Fold change vs veh, AFF3 / RFU, LMF1 / Fold change vs veh, LMF1 / RFU, IPO11 / Fold change vs veh, IPO11 / RFU, DFFB / Fold change vs veh, DFFB / RFU, FOXP1 / Fold change vs veh, FOXP1 / RFU, CARD8 / Fold change vs veh, CARD8 / RFU, STRN3 / Fold change vs veh, STRN3 / RFU, ADK / Fold change vs veh, ADK / RFU, RASSF2 / Fold change vs veh, RASSF2 / RFU, WIPF1 / Fold change vs veh, WIPF1 / RFU, LARP1B / Fold change vs veh, LARP1B / RFU, RASA1 / Fold change vs veh, RASA1 / RFU, RB1 / Fold change vs veh, RB1 / RFU, PPFIA1 / Fold change vs veh, PPFIA1 / RFU, MAT2A / Fold change vs veh, MAT2A / RFU, CCT5 / Fold change vs veh, CCT5 / RFU, WDR92 / Fold change vs veh, WDR92 / RFU, CUX1 / Fold change vs veh, CUX1 / RFU, TTC7A / Fold change vs veh, TTC7A / RFU, TMEM135 / Fold change vs veh, TMEM135 / RFU, DEPTOR / Fold change vs veh, DEPTOR / RFU, CPM / Fold change vs veh, CPM / RFU, DNAJB6 / Fold change vs veh, DNAJB6 / RFU, CACNA2D3 / Fold change vs veh, CACNA2D3 / RFU, DTX4 / Fold change vs veh, DTX4 / RFU, TFCP2 / Fold change vs veh, TFCP2 / RFU, GMCL1 /// GMCL1P1 / Fold change vs veh, GMCL1 /// GMCL1P1 / RFU, AEBP2 / Fold change vs veh, AEBP2 / RFU, SNHG1 /// SNORD22 /// SNORD25 /// SNORD26 /// SNORD27 /// SNORD28 /// SNORD29 /// SNORD31 / Fold change vs veh, SNHG1 /// SNORD22 /// SNORD25 /// SNORD26 /// SNORD27 /// SNORD28 /// SNORD29 /// SNORD31 / Fold change (Aza/veh), C12orf56 (ProbeSet 11735607_a_at) / Fold change (ACY-1035/veh), C12orf56 (ProbeSet 11735607_a_at) / Fold change (Aza/veh), FGFR1OP (ProbeSet 11751329_s_at) / Fold change (ACY-1035/veh), FGFR1OP (ProbeSet 11751329_s_at) / Fold change (Aza/veh), VPS36 (ProbeSet 11739960_a_at) / Fold change (ACY-1035/veh), VPS36 (ProbeSet 11739960_a_at) / RFU SYPL1 (11715823_x_at) / Fold change /veh SYPL1 (11715823_x_at) / RFU IGFBP7 (11715501_s_at) / Fold change /veh IGFBP7 (11715501_s_at) / RFU REEP3 (11722064_at) / Fold change /veh REEP3 (11722064_at) / RFU IGLL1 (11728026_x_at) / Fold change /veh IGLL1 (11728026_x_at): dose or concentration left out as unconfirmed
Conditions: ProbeSet 11719817_x_at; LIST B

**Q.** For `Nc1ncn([C@@H]2O[C@H](CO)[C@@H](O)[C@H]2O)c(=O)n1` [azacitidine], which “Fold change vs veh, BET1” value is on record?
**A.** 0.89
